Key:
Type in all cases: physicochemical
[1] = Room temperature solubilities in various solvent systems (Table 3); conditions: for Solubility: 20° C., material recrystallized from acetic acid
Description: As is the case elsewhere herein, the acetone/water and ethanol/water solvent mixtures are given in weight-for-weight proportions in Table 3 and FIG. 10. It can be seen from Table 3 and FIG. 10 that some of the solvent systems displaying elevated solubility at higher temperatures, for example acetic acid and the several aqueous mixtures, have only limited solubility at room temperature.

[2] = Further solubility tests at 1, 4, 7 and 10 percent by weight, 90° C. water bath (Example 2)
Protocol: A 90° C. water bath is employed to maintain the solvent or solution temperature and results obtainable are tabulated in Table 2 below, solubility parameter information again being included to facilitate understanding of the data for acetone and water, for reference.

[3] = Solubility test: ability of each solvent to dissolve at least 1 percent by weight at a process temperature near its boiling point (Example 1)
Description: This example illustrates solvent mapping, testing and solubility region definition for a diacetylenic monomer for which new solvents and solubility information are desired, namely 2,4-hexadiyn-1,6-bis(ethylurea) and for which reliable solubility parameter information is not available. In this example, solubility points are mapped for each of a number of representative samples of a wide range of solvents of different chemical types and physicochemical characteristics, according to their solubility parameters. The solubility points of the representative solvents (filled squares) are mapped on a plot of hydrogen bonding (δH), on the Y-axis, versus polar parameters (δP), on the X-axis, generating a map such as that shown in FIG. 4. Also shown in FIG. 4 are solubility points for solvent systems comprising 25 percent by weight water/solvent mixtures (unfilled squares).
Each solvent is tested for its ability to dissolve at least 1 percent by weight 2,4-hexadiyn-1,6-bis(ethylurea) at a temperature not more than 5° C. above the boiling point of the solvent. Because the boiling points of the solvents tested vary widely, ranging from 56° C. to 189° C. the solvents are processed in batches at temperatures of 60, 75, 82, and 90° C., respectively. The process temperature desirably is not greater than 4 to 5° C. above a given solvent's boiling point.
Some exemplary solubility data obtainable for 2,4-hexadiyn-1,6-bis(ethylurea) from the above-described solubility test with the solvents indicated, are set forth in Table 1 below along with solubility parameter information for the solvents. Also included in Table 1 are data regarding the 25 percent by weight water/solvent mixtures.

[4] = Solubility in 1,1,3,3-tetramethyl urea at 90° C. in a closed vial; conditions: tetramethyl urea (TMU)
Protocol: 1,1,3,3tetramethyl urea, also called “tetramethyl urea” and sometimes referenced “TMU” can dissolve up to 7% weight 2,4-hexadiyn-1,6-bis(ethylurea) at a temperature of 90° C. in a closed vial.

[5] = solvent 1-Propanol, 90° C. water bath
[6] = solvent 2-Propanol (IPA), 90° C. water bath
[7] = solvent 25% Water/Acetone, 90° C. water bath
[8] = solvent 25% Water/DMF, 90° C. water bath
[9] = solvent 25% Water/DMSO, 90° C. water bath
[10] = solvent 25% Water/Ethanol, 90° C. water bath
[11] = solvent 25% Water/IPA, 90° C. water bath
[12] = solvent 25% water/acetic acid, 90° C. water bath
[13] = solvent 25% water/formic acid, 90° C. water bath
[14] = solvent Acetic acid, 90° C. water bath
[15] = solvent Acetone, 90° C. water bath
[16] = solvent DMSO, 90° C. water bath
[17] = solvent Ethanol, 90° C. water bath
[18] = solvent Ethylene Glycol, 90° C. water bath
[19] = solvent Formic acid, 90° C. water bath
[20] = solvent Methanol, 90° C. water bath
[21] = solvent Pyridine, 90° C. water bath
[22] = solvent Water, 90° C. water bath

## CCNC(=O)NCC#CC#CCNC(=O)NCC [KE, 2,4-hexadiyn-1,6-bis(ethylurea)]
[1]; Acetic acid
  Solubility: 0.6 wt. % of the Solution
[1]; Acetone/water 4:1 (weight for weight)
  Solubility: 0.16 wt. % of the Solution
[1]; DMF
  Solubility: 4 wt. % of the Solution
[1]; DMSO
  Solubility: 4 wt. % of the Solution
[1]; Dichloroacetic acid
  Solubility: 33 wt. % of the Solution
[1]; Ethanol/water 4:1 (weight for weight)
  Solubility: 0.18 wt. % of the Solution
[1]; Ethyl alcohol
  Solubility: 0.17 wt. % of the Solution
[1]; Formic acid
  Solubility: 23 wt. % of the Solution
[1]; Isopropyl alcohol
  Solubility: 0.09 wt. % of the Solution
[1]; Methyl alcohol “MeOH”
  Solubility: 0.27 wt. % of the Solution
[1]; Tetramethyl urea
  Solubility: 0.90 wt. % of the Solution
[1]; Trifluoroaceticacetic acid
  Solubility: 30 wt. % of the Solution
[1]; formic acid, room temperature
  amount solvated by formic acid: ~13 % by weight
[2]; 25% water/ethanol mixture (1 part water, 3 parts ethanol by weight)
  Solubility: at least 4 percent by weight
[2]; dimethyl sulfoxide, 90° C. water bath
  Solubility: > 10%
[2]; formic acid, 90° C. water bath
  Solubility: > 10%
[2]; pure ethanol
  Solubility: less than 4 percent by weight
[2]; [5]
  Is KE soluble at 1%?: Yes
  Is KE soluble at 4%?: No
  Is KE soluble at 7%?: No
  Is KE soluble at 10%?: No
[2]; [6]
  Is KE soluble at 1%?: Yes
  Is KE soluble at 4%?: No
  Is KE soluble at 7%?: No
  Is KE soluble at 10%?: No
[2]; [7]
  Is KE soluble at 1%?: Yes
  Is KE soluble at 4%?: Yes
  Is KE soluble at 7%?: No
  Is KE soluble at 10%?: No
[2]; [8]
  Is KE soluble at 1%?: Yes
  Is KE soluble at 4%?: Yes
  Is KE soluble at 7%?: Yes
  Is KE soluble at 10%?: No
[2]; [9]
  Is KE soluble at 1%?: Yes
  Is KE soluble at 4%?: Yes
  Is KE soluble at 7%?: No
  Is KE soluble at 10%?: No
[2]; [10]
  Is KE soluble at 1%?: Yes
  Is KE soluble at 4%?: Yes
  Is KE soluble at 7%?: No
  Is KE soluble at 10%?: No
[2]; [11]
  Is KE soluble at 1%?: Yes
  Is KE soluble at 4%?: No
  Is KE soluble at 7%?: No
  Is KE soluble at 10%?: No
[2]; [12]
  Is KE soluble at 1%?: Yes
  Is KE soluble at 4%?: Yes
  Is KE soluble at 7%?: Yes
  Is KE soluble at 10%?: No
[2]; [13]
  Is KE soluble at 1%?: Yes
  Is KE soluble at 4%?: Yes
  Is KE soluble at 7%?: Yes
  Is KE soluble at 10%?: No
[2]; [14]
  Is KE soluble at 1%?: Yes
  Is KE soluble at 4%?: Yes
  Is KE soluble at 7%?: Yes
  Is KE soluble at 10%?: Yes
[2]; [15]
  Is KE soluble at 1%?: No
  Is KE soluble at 4%?: No
  Is KE soluble at 7%?: No
  Is KE soluble at 10%?: No
[2]; solvent DMF, 90° C. water bath
  Is KE soluble at 1%?: Yes
  Is KE soluble at 4%?: Yes
  Is KE soluble at 7%?: Yes
  Is KE soluble at 10%?: Yes
[2]; [16]
  Is KE soluble at 1%?: Yes
  Is KE soluble at 4%?: Yes
  Is KE soluble at 7%?: Yes
  Is KE soluble at 10%?: Yes
[2]; [17]
  Is KE soluble at 1%?: Yes
  Is KE soluble at 4%?: No
  Is KE soluble at 7%?: No
  Is KE soluble at 10%?: No
[2]; [18]
  Is KE soluble at 1%?: Yes
  Is KE soluble at 4%?: No
  Is KE soluble at 7%?: No
  Is KE soluble at 10%?: No
[2]; [19]
  Is KE soluble at 1%?: Yes
  Is KE soluble at 4%?: Yes
  Is KE soluble at 7%?: Yes
  Is KE soluble at 10%?: Yes
[2]; [20]
  Is KE soluble at 1%?: Yes
  Is KE soluble at 4%?: Yes
  Is KE soluble at 7%?: No
  Is KE soluble at 10%?: No
[2]; [21]
  Is KE soluble at 1%?: Yes
  Is KE soluble at 4%?: No
  Is KE soluble at 7%?: No
  Is KE soluble at 10%?: No
[2]; [22]
  Is KE soluble at 1%?: No
  Is KE soluble at 4%?: No
  Is KE soluble at 7%?: No
  Is KE soluble at 10%?: No
[2]; water
  solubility in water: insoluble
[2]; water and acetone combined (25% Water/Acetone)
  Solubility: at least 4 percent by weight
[3]; N,N-dimethyl formamide (DMF)
  amount dissolved: at least 1 percent by weight
[3]; acetic acid
  amount dissolved: at least 1 percent by weight
[3]; dimethyl sulfoxide (DMSO)
  amount dissolved: at least 1 percent by weight
[3]; ethanol (EtOH)
  amount dissolved: at least 1 percent by weight
[3]; ethylene glycol
  amount dissolved: at least 1 percent by weight
[3]; pyridine
  amount solvated by pyridine: about 1 % by weight
[3]; solvent Acrylonitrile, process T 75 °C
  KE soluble at 1% wt?: No
[3]; solvent Benzene, process T 75 °C
  KE soluble at 1% wt?: No
[3]; solvent Ethanol, process T 75 °C
  KE soluble at 1% wt?: Yes
[3]; solvent Ethyl acetate, process T 75 °C
  KE soluble at 1% wt?: No
[3]; solvent THF, process T 60 °C
  KE soluble at 1% wt?: No
[3]; solvent n-Hexane, process T 75 °C
  KE soluble at 1% wt?: No
[3]; the water/solvent mixtures (25 percent by weight water), all
  amount dissolved: at least 1 percent by weight
[4]
  amount dissolved by 1,1,3,3-tetramethyl urea: up to 7 % weight
